Results taken from US20040176349A1, “Antibacterial composition” (priority 2001, published 2004).
Read-outs that look alike come from different tables or passages of the source.

Columns and labels:
[1] = tested on: E. faecalis SFZ (vancomycin-sensitive isolate, VSE); assay: Time-kill experiment (viable count); format: cell-based; conditions: FIG. 2, ceftazidime alone at 128 mg/L, PFOB alone at 64 mg/L
From the text: FIG. 2 is a graph of Log viable count (cfu per ml) against time (in hours) for the VSE isolate in the presence or absence of the drugs. […] The isolates used in the Example are purely illustrative and not especially unusual.

E. faecium NCTC 7171 = assay: MIC, microbroth dilution (NCCLS), Table 1; format: cell-based; conditions: Enterococcus faecium, NCTC7171
Procedure: (§1) The minimum inhibitory concentration (MIC) of the compounds was determined using the microbroth dilution technique in accordance with NCCLS guidelines, employing Mueller-Hinton broth (National Committee for Clinical Laboratory Standards, NCCLS, 1995 “Methods for dilution antimicrobial susceptibility tests for bacteria that grow aerobically”—approved standard M7-A5).
(§2) The compounds were tested in isolation, at different concentrations.

E. hirae ATCC 10541 = assay: MIC, microbroth dilution (NCCLS), Table 1; format: cell-based; conditions: Enterococcus hirae, ATCC10541
Procedure: as §1, §2

E. faecalis 24592 = assay: MIC, microbroth dilution (NCCLS), Table 1; format: cell-based; conditions: Enterococcus faecalis, 24592
Procedure: as §1, §2

E. faecalis NCTC 5957 = assay: MIC, microbroth dilution (NCCLS), Table 1; format: cell-based; conditions: Enterococcus faecalis, NCTC5957
Procedure: as §1, §2

E. faecalis Phillips = assay: MIC, microbroth dilution (NCCLS), Table 1; format: cell-based; conditions: Enterococcus faecalis
Procedure: as §1, §2

E. faecalis SFZ = assay: MIC, microbroth dilution (NCCLS), Table 1; format: cell-based; conditions: Enterococcus faecalis
Procedure: as §1, §2

Enterococcus strains = assay: MIC against Enterococcus strains, summary of Example 1; format: cell-based; conditions: for MIC: Enterococcus, vancomycin-susceptible strains and one vancomycin-resistant strain
Procedure: as §1, §2

E. faecalis ATCC 10541 = assay: Checkerboard microdilution MIC with PFOB, Table 2; format: cell-based; conditions: for MIC: Enterococcus faecalis, ATCC10541
From the text: The aim of the study was to detect any synergy between PFOB and the other antibiotics. For the purposes of the study, synergy was defined in accordance with the FIC (fractional inhibitory concentration) index, as disclosed by Lorian (1991, In “Antibiotics in Laboratory Medicine” 3rd edition, Eds. Williams & Wilkins; esp. p 434-443).

VRE 300 2043 = assay: MIC, microbroth dilution (NCCLS), Table 1; format: cell-based, Enterococcus; conditions: Enterococcus, VRE
Procedure: as §1, §2

VRE 300 1562 = assay: MIC, microbroth dilution (NCCLS), Table 1; format: cell-based, Enterococcus; conditions: Enterococcus, VRE
Procedure: as §1, §2

VRE 300 1590 = assay: MIC, microbroth dilution (NCCLS), Table 1; format: cell-based, Enterococcus; conditions: Enterococcus, VRE
Procedure: as §1, §2

VRE 1662 = assay: MIC, microbroth dilution (NCCLS), Table 1; format: cell-based, Enterococcus; conditions: Enterococcus, VRE
Procedure: as §1, §2

E. faecalis 5659 (vanA) = assay: Checkerboard microdilution MIC with PFOB, Table 2; format: cell-based; conditions: E. faecalis 5659 (vanA)
Method in brief: (§3)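 Checkerboard microdilution pairing PFOB with other antibiotics. Synergy scored by FIC index: combination FIC <0.5 synergy, 0.5-2.0 indifference, >2 antagonism, with synergy requiring at least a 4-fold reduction for each compound.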

E. faecalis ATCC 29212 = assay: Checkerboard microdilution MIC with PFOB, Table 2; format: cell-based
Method in brief: as §3

E.faecalis 78097 (van B) = assay: Checkerboard microdilution MIC with PFOB, Table 2; format: cell-based
Method in brief: as §3

Compound: CC(C)(O/N=C(\C(=O)N[C@@H]1C(=O)N2C(C(=O)[O-])=C(C[n+]3ccccc3)CS[C@H]12)c1csc(N)n1)C(=O)O [CAZ, ceftazidime]
- effect on growth (viable count, time-kill) [1]: some inhibitory effect on growth
- MIC (E. faecium NCTC 7171): > 128 µg/mL
- MIC (E. hirae ATCC 10541): > 128 µg/mL
- MIC (E. faecalis 24592): > 128 µg/mL
- MIC (E. faecalis NCTC 5957): > 128 µg/mL
- MIC (E. faecalis Phillips): > 128 µg/mL
- MIC (E. faecalis SFZ): > 128 µg/mL
- MIC (Enterococcus strains; read-out: MIC of CAZ used in conjunction with PFOB, PFOB at 4 mg/L): < 0.06 µg/mL
- MIC (Enterococcus strains; read-out: MIC of CAZ used in isolation): > 128 µg/mL
- reduction in the MIC of CAZ by PFOB (Enterococcus strains; PFOB at 4 mg/L versus CAZ in isolation): about 2,000 fold
- activity in isolation against the Enterococcus strains tested (Enterococcus strains; compound alone, all strains of Table 1, in words): no activity
- MIC of partner antibiotic in the presence of PFOB at 0.5 mg/L (E. faecalis ATCC 10541; E. faecalis ATCC 10541, PFOB 0.5 mg/L): >64 µg/mL
- MIC of partner antibiotic in the presence of PFOB at 1 mg/L (E. faecalis ATCC 10541; E. faecalis ATCC 10541, PFOB 1 mg/L): >64 µg/mL
- MIC of partner antibiotic in the presence of PFOB at 2 mg/L (E. faecalis ATCC 10541; E. faecalis ATCC 10541, PFOB 2 mg/L): >64 µg/mL
- MIC of partner antibiotic in the presence of PFOB at 4 mg/L (E. faecalis ATCC 10541; E. faecalis ATCC 10541, PFOB 4 mg/L): >64 µg/mL
- MIC of partner antibiotic in the presence of PFOB at 8 mg/L (E. faecalis ATCC 10541; E. faecalis ATCC 10541, PFOB 8 mg/L): 8 µg/mL
- MIC of partner antibiotic in the presence of PFOB at 16 mg/L (E. faecalis ATCC 10541; E. faecalis ATCC 10541, PFOB 16 mg/L): 4 µg/mL
- MIC of partner antibiotic in the presence of PFOB at 32 mg/L (E. faecalis ATCC 10541; E. faecalis ATCC 10541, PFOB 32 mg/L): <0.06 µg/mL
- MIC (E. faecalis ATCC 10541; E. faecalis ATCC 10541, optimum synergistic combination of PFOB with the labelled partner, first figure (PFOB), read-out: MIC of PFOB & Partner: PFOB concentration): 8 µg/mL
- MIC (E. faecalis ATCC 10541; E. faecalis ATCC 10541, optimum synergistic combination with PFOB, second figure (partner), read-out: MIC of PFOB & Partner: Partner concentration): 8 µg/mL
- MIC (E. faecalis ATCC 10541; E. faecalis ATCC 10541, partner antibiotic alone, read-out: MIC (alone) of Partner): > 64 µg/mL
- synergy with PFOB (E. faecalis ATCC 10541; checkerboard, E. faecium ATCC 10541 (as named), vancomycin-susceptible, in words): marked synergy
- MIC (VRE 300 2043): > 128 µg/mL
- MIC (VRE 300 1562): > 128 µg/mL
- MIC (VRE 300 1590): > 128 µg/mL
- MIC (VRE 1662): > 128 µg/mL
- MIC of partner antibiotic in the presence of PFOB at 0.5 mg/L (E. faecalis 5659 (vanA); PFOB 0.5 mg/L): >64 µg/mL
- MIC of partner antibiotic in the presence of PFOB at 1 mg/L (E. faecalis 5659 (vanA); PFOB 1 mg/L): >64 µg/mL
- MIC of partner antibiotic in the presence of PFOB at 2 mg/L (E. faecalis 5659 (vanA); PFOB 2 mg/L): >64 µg/mL
- MIC of partner antibiotic in the presence of PFOB at 4 mg/L (E. faecalis 5659 (vanA); PFOB 4 mg/L): >64 µg/mL
- MIC of partner antibiotic in the presence of PFOB at 8 mg/L (E. faecalis 5659 (vanA); PFOB 8 mg/L): >64 µg/mL
- MIC of partner antibiotic in the presence of PFOB at 16 mg/L (E. faecalis 5659 (vanA); PFOB 16 mg/L): >64 µg/mL
- MIC of partner antibiotic in the presence of PFOB at 32 mg/L (E. faecalis 5659 (vanA); PFOB 32 mg/L): 0.25 µg/mL
- MIC (E. faecalis 5659 (vanA); Enterococcus faecalis, partner antibiotic alone, read-out: MIC (alone) of Partner): > 64 µg/mL
- Synergy FIC (E. faecalis ATCC 29212; E. faecalis ATCC 29212, FIC index of PFOB + labelled partner, <0.5 = synergy): 0.188
- MIC of partner antibiotic in the presence of PFOB at 0.5 mg/L (E. faecalis ATCC 29212; E. faecalis ATCC 29212, PFOB 0.5 mg/L): >64 µg/mL
- MIC of partner antibiotic in the presence of PFOB at 1 mg/L (E. faecalis ATCC 29212; E. faecalis ATCC 29212, PFOB 1 mg/L): >64 µg/mL
- MIC of partner antibiotic in the presence of PFOB at 2 mg/L (E. faecalis ATCC 29212; E. faecalis ATCC 29212, PFOB 2 mg/L): >64 µg/mL
- MIC of partner antibiotic in the presence of PFOB at 4 mg/L (E. faecalis ATCC 29212; E. faecalis ATCC 29212, PFOB 4 mg/L): 32 µg/mL
- MIC of partner antibiotic in the presence of PFOB at 8 mg/L (E. faecalis ATCC 29212; E. faecalis ATCC 29212, PFOB 8 mg/L): 16 µg/mL
- MIC of partner antibiotic in the presence of PFOB at 16 mg/L (E. faecalis ATCC 29212; E. faecalis ATCC 29212, PFOB 16 mg/L): 8 µg/mL
- MIC of partner antibiotic in the presence of PFOB at 32 mg/L (E. faecalis ATCC 29212; E. faecalis ATCC 29212, PFOB 32 mg/L): 2 µg/mL
- MIC (E. faecalis ATCC 29212; Enterococcus faecalis, ATCC29212, E. faecalis ATCC 29212, partner antibiotic alone, read-out: MIC (alone) of Partner): > 64 µg/mL
- synergy with PFOB (E. faecalis ATCC 29212; checkerboard, E. faecalis ATCC 29212, vancomycin-susceptible, in words): marked synergy
- Synergy FIC (E.faecalis 78097 (van B); E.faecalis 78097 (van B), FIC index of PFOB + labelled partner, <0.5 = synergy): 0.156
- MIC of partner antibiotic in the presence of PFOB at 0.5 mg/L (E.faecalis 78097 (van B); E.faecalis 78097 (van B), PFOB 0.5 mg/L): >64 µg/mL
- MIC of partner antibiotic in the presence of PFOB at 1 mg/L (E.faecalis 78097 (van B); E.faecalis 78097 (van B), PFOB 1 mg/L): >64 µg/mL
- MIC of partner antibiotic in the presence of PFOB at 2 mg/L (E.faecalis 78097 (van B); E.faecalis 78097 (van B), PFOB 2 mg/L): 32 µg/mL
- MIC of partner antibiotic in the presence of PFOB at 4 mg/L (E.faecalis 78097 (van B); E.faecalis 78097 (van B), PFOB 4 mg/L): 16 µg/mL
- MIC of partner antibiotic in the presence of PFOB at 8 mg/L (E.faecalis 78097 (van B); E.faecalis 78097 (van B), PFOB 8 mg/L): 16 µg/mL
- MIC of partner antibiotic in the presence of PFOB at 16 mg/L (E.faecalis 78097 (van B); E.faecalis 78097 (van B), PFOB 16 mg/L): 8 µg/mL
- MIC of partner antibiotic in the presence of PFOB at 32 mg/L (E.faecalis 78097 (van B); E.faecalis 78097 (van B), PFOB 32 mg/L): 4 µg/mL
- MIC of PFOB & Partner: Partner concentration (E.faecalis 78097 (van B); E.faecalis 78097 (van B), optimum synergistic combination with PFOB, second figure (partner)): 16 µg/mL
- MIC (E.faecalis 78097 (van B); Enterococcus faecalis, E.faecalis 78097 (van B), partner antibiotic alone, read-out: MIC (alone) of Partner): > 64 µg/mL
- synergy with PFOB (E.faecalis 78097 (van B); checkerboard, E. faecalis 78097, vanB-mediated vancomycin resistance, in words): Synergy was also observed
